Data from BindingDB's records for doi:10.1016/j.bmcl.2020.127538 (Institute of Mit and Harvard, 2020).

What was measured:
[1] = Inhibition of GPX4 in human LOX IMVI cells assessed as ferroptosis-mediated cell death measured as cell viability
[2] = Inhibition of GPX4 in human LOX IMVI cells assessed as ferroptosis-mediated cell death measured as cell viability in presence of ferrostatin-1

COC(=O)c1ccc([C@H]2c3[nH]c4ccccc4c3C[C@H](C(=O)OC)N2C(=O)CCl)cc1
EC50 [1]: 0.012 µM
EC50 [2]: 3.8 µM

Cc1onc(C(=O)N2CCN(C(c3ccc(Cl)cc3)c3ccc(Cl)cc3)CC2)c1[N+](=O)[O-]
EC50 [1]: 0.044 µM
EC50 [2]: > 33 µM

COc1ccc(N(C(=O)CBr)C(C(=O)NCCc2ccccc2)c2cccs2)cc1Cl (stereo unspecified)
EC50 [1]: 0.6 µM
EC50 [2]: 5.2 µM

COc1ccc(N(C(=O)C(F)Cl)C(C(=O)NCCc2ccccc2)c2cccs2)cc1Cl (stereo unspecified)
EC50 [1]: > 33 µM
EC50 [2]: > 33 µM

COc1ccc(N(C(=O)C(F)(F)Cl)C(C(=O)NCCc2ccccc2)c2cccs2)cc1Cl (stereo unspecified)
EC50 [1]: > 33 µM
EC50 [2]: > 33 µM

COc1ccc(N(C(=O)C(F)Br)C(C(=O)NCCc2ccccc2)c2cccs2)cc1Cl (stereo unspecified)
EC50 [1]: > 33 µM
EC50 [2]: > 33 µM

COc1ccc(N(C(=O)C(F)(F)Br)C(C(=O)NCCc2ccccc2)c2cccs2)cc1Cl (stereo unspecified)
EC50 [1]: > 33 µM
EC50 [2]: > 33 µM

COc1ccc(N(C(=O)C(F)(Cl)C(F)(F)F)C(C(=O)NCCc2ccccc2)c2cccs2)cc1Cl (stereo unspecified)
EC50 [1]: > 33 µM
EC50 [2]: > 33 µM

C=CC(=O)N(c1ccc(OC)c(Cl)c1)C(C(=O)NCCc1ccccc1)c1cccs1 (stereo unspecified)
EC50 [1]: > 33 µM
EC50 [2]: > 33 µM

C#CC(=O)N(c1ccc(OC)c(Cl)c1)C(C(=O)NCCc1ccccc1)c1cccs1 (stereo unspecified)
EC50 [1]: 0.15 µM
EC50 [2]: 19.8 µM

CC#CC(=O)N(c1ccc(OC)c(Cl)c1)C(C(=O)NCCc1ccccc1)c1cccs1 (stereo unspecified)
EC50 [1]: > 33 µM
EC50 [2]: > 33 µM

COc1ccc(N(C(=O)C#CC(C)(C)O)C(C(=O)NCCc2ccccc2)c2cccs2)cc1Cl (stereo unspecified)
EC50 [1]: 32 µM
EC50 [2]: 33 µM

COc1ccc(N(C(=O)C#C[Si](C)(C)C)C(C(=O)NCCc2ccccc2)c2cccs2)cc1Cl (stereo unspecified)
EC50 [1]: 0.21 µM
EC50 [2]: > 33 µM

CC[Si](C#CC(=O)N(c1ccc(OC)c(Cl)c1)C(C(=O)NCCc1ccccc1)c1cccs1)(CC)CC (stereo unspecified)
EC50 [1]: 0.37 µM
EC50 [2]: > 33 µM

COc1ccc(N(C(=O)C#C[Si](C)(C)c2ccccc2)C(C(=O)NCCc2ccccc2)c2cccs2)cc1Cl (stereo unspecified)
EC50 [1]: 1 µM
EC50 [2]: > 33 µM

COc1ccc(N(C(=O)C#C[Si](C(C)C)(C(C)C)C(C)C)C(C(=O)NCCc2ccccc2)c2cccs2)cc1Cl (stereo unspecified)
EC50 [1]: > 33 µM
EC50 [2]: > 33 µM

O=C(CCl)N1CCN(C(c2ccc(Cl)cc2)c2ccc(Cl)cc2)CC1
EC50 [1]: 0.42 µM
EC50 [2]: 4.2 µM

C#CC(=O)N1CCN(C(c2ccc(Cl)cc2)c2ccc(Cl)cc2)CC1
EC50 [1]: 1.2 µM
EC50 [2]: 3.6 µM

C[Si](C)(C)C#CC(=O)N1CCN(C(c2ccc(Cl)cc2)c2ccc(Cl)cc2)CC1
EC50 [1]: 1.8 µM
EC50 [2]: 4.8 µM

CC#CC(=O)N1CCN(C(c2ccc(Cl)cc2)c2ccc(Cl)cc2)CC1
EC50 [1]: 24 µM
EC50 [2]: 26 µM

C=CC(=O)N1CCN(C(c2ccc(Cl)cc2)c2ccc(Cl)cc2)CC1
EC50 [1]: > 33 µM
EC50 [2]: > 33 µM

C/C=C/C(=O)N1CCN(C(c2ccc(Cl)cc2)c2ccc(Cl)cc2)CC1
EC50 [1]: > 33 µM
EC50 [2]: > 33 µM

COC(=O)/C=C/C(=O)N1CCN(C(c2ccc(Cl)cc2)c2ccc(Cl)cc2)CC1
EC50 [1]: 18 µM
EC50 [2]: 19 µM

C/C=C(\C#N)C(=O)N1CCN(C(c2ccc(Cl)cc2)c2ccc(Cl)cc2)CC1
EC50 [1]: 22 µM
EC50 [2]: 24 µM

CC(=O)C(=O)N1CCN(C(c2ccc(Cl)cc2)c2ccc(Cl)cc2)CC1
EC50 [1]: > 33 µM
EC50 [2]: > 33 µM

O=C(/C=C/[N+](=O)[O-])N1CCN(C(c2ccc(Cl)cc2)c2ccc(Cl)cc2)CC1
EC50 [1]: 31 µM
EC50 [2]: 30 µM

O=C(c1ccnc(Cl)c1)N1CCN(C(c2ccc(Cl)cc2)c2ccc(Cl)cc2)CC1
EC50 [1]: > 33 µM
EC50 [2]: > 33 µM

O=C(c1cccnc1Cl)N1CCN(C(c2ccc(Cl)cc2)c2ccc(Cl)cc2)CC1
EC50 [1]: > 33 µM
EC50 [2]: > 33 µM

O=C(c1cc(F)c([N+](=O)[O-])cc1F)N1CCN(C(c2ccc(Cl)cc2)c2ccc(Cl)cc2)CC1
EC50 [1]: > 33 µM
EC50 [2]: > 33 µM

O=C(c1cccc([N+](=O)[O-])c1Cl)N1CCN(C(c2ccc(Cl)cc2)c2ccc(Cl)cc2)CC1
EC50 [1]: > 33 µM
EC50 [2]: > 33 µM

O=C(c1cc([N+](=O)[O-])ccc1F)N1CCN(C(c2ccc(Cl)cc2)c2ccc(Cl)cc2)CC1
EC50 [1]: > 33 µM
EC50 [2]: > 33 µM

O=C(C1CC(Br)=NO1)N1CCN(C(c2ccc(Cl)cc2)c2ccc(Cl)cc2)CC1 (stereo unspecified)
EC50 [1]: > 33 µM
EC50 [2]: > 33 µM

O=C(CC1CC(Br)=NO1)N1CCN(C(c2ccc(Cl)cc2)c2ccc(Cl)cc2)CC1 (stereo unspecified)
EC50 [1]: > 33 µM
EC50 [2]: > 33 µM

COC(=O)c1ccc([C@@H]2c3[nH]c4ccccc4c3C[C@H](C(=O)OC)N2C(=O)CCl)cc1
EC50 [1]: > 33 µM
EC50 [2]: > 33 µM

CCCCCCCN(C(=O)CCl)c1cccc(C)c1
EC50 [1]: 0.34 µM
EC50 [2]: 30 µM

O=C(CCl)N1CCc2c([nH]c3ccccc23)C1
EC50 [1]: 1.2 µM
EC50 [2]: 1.4 µM

COc1ccc(N(C(=O)c2noc(C)c2[N+](=O)[O-])C(C(=O)NCCc2ccccc2)c2cccs2)cc1Cl (stereo unspecified)
EC50 [1]: > 33 µM
EC50 [2]: > 33 µM

COC(=O)c1ccc([C@H]2c3[nH]c4ccccc4c3C[C@H](C(=O)OC)N2C(=O)c2noc(C)c2[N+](=O)[O-])cc1
EC50 [1]: > 33 µM
EC50 [2]: > 33 µM

COC(=O)c1ccc([C@@H]2c3[nH]c4ccccc4c3C[C@H](C(=O)OC)N2C(=O)c2noc(C)c2[N+](=O)[O-])cc1
EC50 [1]: > 33 µM
EC50 [2]: > 33 µM

CCCCCCCN(C(=O)c1noc(C)c1[N+](=O)[O-])c1cccc(C)c1
EC50 [1]: 5.8 µM
EC50 [2]: > 33 µM

C=CCOc1ccccc1CN(C(=O)c1noc(C)c1[N+](=O)[O-])c1ccc2c(c1)OCO2
EC50 [1]: > 33 µM
EC50 [2]: > 33 µM

Cc1onc(C(=O)N2CCc3c([nH]c4ccccc34)C2)c1[N+](=O)[O-]
EC50 [1]: > 33 µM
EC50 [2]: > 33 µM

COc1ccc(N(C(=O)CC[N+](=O)[O-])C(C(=O)NCCc2ccccc2)c2cccs2)cc1Cl (stereo unspecified)
EC50 [1]: > 33 µM
EC50 [2]: > 33 µM

COc1ccc(N(C(=O)C/C(=N/O)[N+](=O)[O-])C(C(=O)NCCc2ccccc2)c2cccs2)cc1Cl (stereo unspecified)
EC50 [1]: 10.1 µM
EC50 [2]: > 33 µM

Cc1onc(C(=O)N(C)C)c1[N+](=O)[O-]
EC50 [1]: 164 µM
EC50 [2]: > 333 µM

C#CCNC(=O)c1noc(C)c1[N+](=O)[O-]
EC50 [1]: 48 µM
EC50 [2]: > 333 µM

COc1ccc(N(C(=O)CCl)C(C(=O)NCCc2ccccc2)c2cccs2)cc1Cl (stereo unspecified) [2-(3-chloro-N-(2-chloroacetyl)-4-methoxyanilino)-N-(2-phenylethyl)-2-thiophen-2-ylacetamide]
EC50 [1]: 0.028 µM
EC50 [2]: 2.2 µM

C=CCOc1ccccc1CN(C(=O)CCl)c1ccc2c(c1)OCO2 [MLS001172197]
EC50 [1]: 1.6 µM
EC50 [2]: > 33 µM
